Results reported in patent publication US20250270217A1, “IMIDAZ0[1,2-A]PYRIMIDINE-5(1 H)-ONES HAVING A COVALENT WARHEAD AT THE 3-POSITION AS WRN INHIBITORS” (Incyte Corporation, priority 2023, published 2025).

Assays:
[1] = tested on: WRN (aa S2-S1235) variants; test: Helicase activity of WRN mutants (fluorescence-based DNA unwinding assay); assay type: biochemical; settings: for Ratio to WT: Table 9, helicase activity; for Observed Helicase Activity (AU/min): Table 9, helicase activity of WRN mutants
Experimental: (§1) Point mutations were made in the His-tagged WRN construct used for biochemical characterization (aa S2-S1235). Cysteine 580 (Walker A motif), 727 (linker), 864 (Domain 2A) and 1041 (RQC domain) were each mutated to both Serine and Alanine using site directed mutagenesis, for a total of eight mutants. Purified proteins were assayed in both helicase and ATPase assays. Cys580 mutation to either Ser or Ala abolished all activity, consistent with Walker A motif cysteine function. Cys864 (D2) mutation to alanine and Cys1041 (RQC domain) had no significant impact on helicase or ATPase activity. Cys727 abolished helicase activity (Table 9), whether it was mutated to Ala or Ser. ATPase activity for Cys727 mutants was reduced but not abolished (Table 10). Table 9 is the panel of the nine variant WRN helicase proteins that were screen using a flourscence-based DNA unwinding assay with an increase in flourscence intensity indicating DNA unwinding. Table 10 is the panel of the nine variant WRN helicase proteins that were screened using ADP-Glo assay to measure DNA stimulated ATPase activity, with an increase in luminescence indicating ATP hydrolysis.

[2] = tested on: WRN (aa S2-S1235) variants; test: ATPase activity of WRN mutants (ADP-Glo, DNA stimulated ATPase activity); assay type: biochemical; settings: for Ratio to WT: Table 10, ATPase activity; for Observed Helicase Activity (AU/min): Table 10, ATPase activity of WRN mutants
Experimental: as §1

1. C580A: His-tagged WRN construct (aa S2-S1235), Cysteine 580 (Walker A motif) mutated to Alanine
Ratio to WT [1]: 0.02 | Observed Helicase Activity (AU/min) [1]: 1.04 AU/min | Ratio to WT [2]: 0.03 | Observed Helicase Activity (AU/min) [2]: 2.548 AU/min

2. C580S: His-tagged WRN construct (aa S2-S1235), Cysteine 580 (Walker A motif) mutated to Serine
Ratio to WT [1]: 0.00 | Observed Helicase Activity (AU/min) [1]: 0 AU/min | Ratio to WT [2]: 0.01 | Observed Helicase Activity (AU/min) [2]: 0.8014 AU/min

3. C727A: His-tagged WRN construct (aa S2-S1235), Cysteine 727 (linker) mutated to Alanine
Ratio to WT [1]: 0.07 | Observed Helicase Activity (AU/min) [1]: 4.619 AU/min | Ratio to WT [2]: 0.29 | Observed Helicase Activity (AU/min) [2]: 22.65 AU/min

5. C864A: His-tagged WRN construct (aa S2-S1235), Cysteine 864 (Domain 2A) mutated to Alanine
Ratio to WT [1]: 0.94 | Observed Helicase Activity (AU/min) [1]: 60.75 AU/min | Ratio to WT [2]: 0.90 | Observed Helicase Activity (AU/min) [2]: 70.52 AU/min

6. C864S: His-tagged WRN construct (aa S2-S1235), Cysteine 864 (Domain 2A) mutated to Serine
Ratio to WT [1]: 0.44 | Observed Helicase Activity (AU/min) [1]: 28.49 AU/min | Ratio to WT [2]: 0.54 | Observed Helicase Activity (AU/min) [2]: 42.02 AU/min

7. C1041A: His-tagged WRN construct (aa S2-S1235), Cysteine 1041 (RQC domain) mutated to Alanine
Ratio to WT [1]: 0.93 | Observed Helicase Activity (AU/min) [1]: 60.14 AU/min | Ratio to WT [2]: 0.85 | Observed Helicase Activity (AU/min) [2]: 66.66 AU/min

8. C1041S: His-tagged WRN construct (aa S2-S1235), Cysteine 1041 (RQC domain) mutated to Serine
Ratio to WT [1]: 0.62 | Observed Helicase Activity (AU/min) [1]: 40.28 AU/min | Ratio to WT [2]: 0.59 | Observed Helicase Activity (AU/min) [2]: 45.74 AU/min
